What was measured:
[1] = Apparent permeability from apical to basolateral side in dog MDCK cells; type: ADME, cell-based, Canis lupus familiaris
[2] = Volume of distribution at steady state in Sprague-Dawley rat at 2 mg/kg, iv; type: ADME, organism-based; settings: in vivo, read-out: Vdss
[3] = Cmax in Sprague-Dawley rat at 20 mg/kg, po; type: ADME, organism-based; design: route oral, dose 20 mg/kg; settings: in vivo
[4] = AUC in Sprague-Dawley rat at 20 mg/kg, po; type: ADME, organism-based; design: dose 20 mg/kg; settings: in vivo
[5] = Oral bioavailability in Sprague-Dawley rat at 20 mg/kg; type: ADME, organism-based; settings: in vivo

Papp A→B [1] [×10⁻⁶ cm/s] | Vd [2] [L/kg] | Cmax [3] [ng/mL] | AUC [4] [ng·h/mL] | F [5] [%] | SMILES
25.3 | 0.21 | 6960 | 15775 | 47.8 | CC(C)C(c1noc(=O)[nH]1)c1ccc(-c2ccc3cccc(F)c3c2)[nH]c1=O (configuration not stated)
– | 1.98 | 409 | 4242 | – | CC(C)C(c1nnc[nH]1)c1ccc(-c2ccc3cccc(F)c3c2)[nH]c1=O (configuration not stated)
– | 0.5 | 5120 | 59653 | 81.6 | CCn1ncc2c(F)cc(-c3ccc(C(CC)(CC)c4nnc[nH]4)c(=O)[nH]3)cc21
